Test results as given in ChEMBL document CHEMBL3621074, “Exploration of the linkage elements of porcupine antagonists led to potent Wnt signaling pathway inhibitors” (Bioorg Med Chem, 2015).
Each block holds one compound with its values, some of them ahead of it. Calls of active or inactive are those of the source. No cut-off for these calls is given here.

How the values were obtained:
[1] = target: T1, Protein-serine O-palmitoleoyltransferase porcupine (Homo sapiens, UniProt Q9H237); test: Inhibition of porcupine (unknown origin) expressed in mouse L Wnt3A cells co-cultured with TM3 cells harboring luciferase reporter gene assessed as reduction in Wnt ligand-driven LEF/TCF-dependent transcriptional activity; format: cell-based
T1 sequence (Q9H237 whole entry): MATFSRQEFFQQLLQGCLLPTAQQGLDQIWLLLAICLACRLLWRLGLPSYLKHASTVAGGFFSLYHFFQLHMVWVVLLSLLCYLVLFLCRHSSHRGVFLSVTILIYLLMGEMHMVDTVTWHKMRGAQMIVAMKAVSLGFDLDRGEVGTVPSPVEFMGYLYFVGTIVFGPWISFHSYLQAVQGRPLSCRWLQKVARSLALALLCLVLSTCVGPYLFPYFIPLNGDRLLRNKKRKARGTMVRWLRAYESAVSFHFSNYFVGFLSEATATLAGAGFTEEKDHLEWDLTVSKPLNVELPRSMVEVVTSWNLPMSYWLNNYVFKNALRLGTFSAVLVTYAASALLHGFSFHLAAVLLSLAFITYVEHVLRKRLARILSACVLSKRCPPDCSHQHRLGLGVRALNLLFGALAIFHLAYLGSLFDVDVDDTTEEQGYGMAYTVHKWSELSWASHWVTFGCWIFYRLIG

[2] = Half life in mouse liver microsomes at 1 uM in presence of NADPH by LC-MS/MS method; format: ADME
[3] = Half life in human liver microsomes at 1 uM in presence of NADPH by LC-MS/MS method; format: ADME
[4] = target: T2, Protein-serine O-palmitoleoyltransferase porcupine (Homo sapiens) (UniProt Q9H237); test: Inhibition of porcupine (unknown origin) expressed in HEK293T cells transfected with pLinbin- Wnt3A plasmid assessed as inhibition of Wnt3A secretion at 0.1 uM incubated for 48 hrs by Western blotting method; format: cell-based; conditions: HEK-293T
T2 sequence (whole entry): T1 sequence (Q9H237 whole entry)

CYP3A4 = CYP3A4 (Homo sapiens, UniProt P08684); test: Inhibition of CYP3A4 in human liver microsomes at 10 uM pre-incubated for 10 mins before midazolam substrate and NADPH addition by LC-MS/MS method; format: ADME; conditions: probe midazolam
[5] = Stability of the compound in rat plasma assessed as drug remaining at 1 uM incubated for 8 hr by LC-MS/MS method; format: ADME, cell-free; conditions: read-out: Stability
CYP2D6 = CYP2D6 (Homo sapiens, UniProt P10635); test: Inhibition of CYP2D6 in human liver microsomes at 10 uM pre-incubated for 10 mins before dextromethorphan substrate and NADPH addition by LC-MS/MS method; format: ADME; conditions: probe dextromethorphan
[6] = target: T2, Protein-serine O-palmitoleoyltransferase porcupine (Homo sapiens); test: Potency index, ratio of IC50 for LGK974 to IC50 for test compound for inhibition of porcupine (unknown origin) expressed in mouse L Wnt3A cells co-cultured with HEK293 STF cells by STF reporter gene based paracrine cellular reporter gene assay; format: cell-based
[7] = Intrinsic clearance in human liver microsomes at 1 uM incubated for 60 mins in presence of NADPH by LC-MS/MS method; format: ADME; conditions: read-out: CLH
[8] = Chemical stability in simulated gastric fluid assessed as remaining compound level incubated for 0 hrs at 200 uM at 40 degC by HPLC method; format: physicochemical; conditions: read-out: Stability
[9] = Chemical stability in simulated gastric fluid assessed as remaining compound level incubated for 8 hrs at 200 uM at 40 degC by HPLC method; format: physicochemical; conditions: read-out: Stability
[10] = Effect on total intracellular Wnt3a levels in HEK293T cells transfected with pLinbin- Wnt3A plasmid at 0.1 uM incubated for 48 hrs by Western blotting method; format: ADME, cell-based; conditions: human, hek-293t
[11] = Stability of the compound in rat plasma assessed as drug remaining at 1 uM incubated for 30 mins by LC-MS/MS method; format: ADME, cell-free; conditions: read-out: Stability
[12] = Chemical stability in simulated gastric fluid assessed as remaining compound level incubated for 4 hrs at 200 uM at 40 degC by HPLC method; format: physicochemical; conditions: read-out: Stability
[13] = Intrinsic clearance in mouse liver microsomes at 1 uM incubated for 60 mins in presence of NADPH by LC-MS/MS method; format: ADME; conditions: read-out: CLH
[14] = Stability of the compound in rat plasma assessed as drug remaining at 1 uM incubated for 1 hr by LC-MS/MS method; format: ADME, cell-free; conditions: read-out: Stability

CYP3A4, sequence (P08684 whole entry): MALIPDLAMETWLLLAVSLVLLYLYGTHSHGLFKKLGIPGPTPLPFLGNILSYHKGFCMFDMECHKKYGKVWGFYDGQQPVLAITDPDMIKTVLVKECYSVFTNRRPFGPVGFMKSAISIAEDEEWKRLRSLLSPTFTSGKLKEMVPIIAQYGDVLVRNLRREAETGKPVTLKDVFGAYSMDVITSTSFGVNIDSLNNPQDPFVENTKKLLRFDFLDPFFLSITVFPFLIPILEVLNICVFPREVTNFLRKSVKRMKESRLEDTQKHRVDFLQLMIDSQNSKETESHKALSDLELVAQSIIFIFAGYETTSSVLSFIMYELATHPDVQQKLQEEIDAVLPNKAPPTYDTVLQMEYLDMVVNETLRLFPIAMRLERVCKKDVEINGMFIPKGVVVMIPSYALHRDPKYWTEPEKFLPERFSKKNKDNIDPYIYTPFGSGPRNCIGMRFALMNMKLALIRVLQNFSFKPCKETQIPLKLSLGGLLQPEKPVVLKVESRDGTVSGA
CYP2D6, sequence (P10635 whole entry): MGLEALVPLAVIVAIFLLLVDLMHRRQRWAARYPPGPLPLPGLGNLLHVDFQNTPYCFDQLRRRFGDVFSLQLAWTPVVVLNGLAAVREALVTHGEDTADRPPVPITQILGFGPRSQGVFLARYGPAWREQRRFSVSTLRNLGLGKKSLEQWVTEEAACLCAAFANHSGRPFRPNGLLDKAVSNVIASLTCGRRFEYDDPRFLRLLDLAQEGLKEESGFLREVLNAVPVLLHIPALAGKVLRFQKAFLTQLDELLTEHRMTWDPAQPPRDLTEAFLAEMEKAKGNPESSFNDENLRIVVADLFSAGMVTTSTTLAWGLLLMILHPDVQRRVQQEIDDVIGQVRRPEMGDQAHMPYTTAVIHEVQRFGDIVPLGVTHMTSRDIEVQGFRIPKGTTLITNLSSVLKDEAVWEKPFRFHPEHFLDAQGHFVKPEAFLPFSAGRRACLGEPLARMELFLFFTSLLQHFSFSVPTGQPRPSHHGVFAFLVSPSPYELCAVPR

IC50 [1]: 2.7 nM
SMILES: N#Cc1ccc2cc(OCC(=O)Nc3ccc(-c4cnccn4)cn3)ccc2c1

IC50 [1]: 24 nM
SMILES: CC(=O)N1CCc2ccc(OCC(=O)Nc3ccc(-c4cnccn4)cn3)cc2C1

IC50 [1]: 188 nM
SMILES: Cc1cc(-c2cccc(OCC(=O)Nc3ccc(-c4cnccn4)cn3)c2)ccn1

IC50 [1]: 485 nM
SMILES: N#Cc1ccc(OCC(=O)Nc2ccc(-c3cnccn3)cn2)cc1

IC50 [1]: > 1000 nM
SMILES: O=C(COc1ccc2ccccc2c1)Nc1ccc(-c2cnccn2)cn1

IC50 [1]: > 1000 nM
SMILES: COc1ccc2cc(OCC(=O)Nc3ccc(-c4cnccn4)cn3)ccc2c1

half-life at 1 µM [2]: 4.3 min
half-life at 1 µM [3]: 13 min
inhibition [4]: Active
inhibition at 10 µM (CYP3A4): 47%
remaining at 8 h, 1 µM [5]: 84%
inhibition at 10 µM (CYP2D6): 19%
IC50 [1]: 0.23 nM
CLint scaled at 1 µM [7]: 135 mL/min/kg
remaining at 0 h, 200 µM [8]: 96%
remaining at 8 h, 200 µM [9]: 67%
remaining at 0.5 h, 1 µM [11]: 97%
remaining at 4 h, 200 µM [12]: 81%
CLint scaled at 1 µM [13]: 1430 mL/min/kg
remaining at 1 h, 1 µM [14]: 90%
SMILES: Cc1cc(-c2ccc(OCC(=O)Nc3ccc(-c4cnccn4)cn3)cc2)ccn1
Activity [10]: Non-toxic

IC50 [1]: > 1000 nM
SMILES: Nc1noc2ccc(OCC(=O)Nc3ccc(-c4cnccn4)cn3)cc12

IC50 [1]: > 1000 nM
SMILES: Cn1ncc2cc(OCC(=O)Nc3ccc(-c4cnccn4)cn3)ccc21

IC50 [1]: > 1000 nM
SMILES: O=C(COc1ccc2[nH]ncc2c1)Nc1ccc(-c2cnccn2)cn1

IC50 [1]: 30 nM
SMILES: O=C(COc1ccc2ccncc2c1)Nc1ccc(-c2cnccn2)cn1

Continued, compound first:

SMILES: O=C(CNc1ccc2[nH]ncc2c1)Nc1ccc(-c2cnccn2)cn1
IC50 [1]: > 1000 nM

SMILES: CC(=O)N1CCN(c2ccc(OCC(=O)Nc3ccc(-c4cnccn4)cn3)cc2)CC1
IC50 [1]: 483 nM

SMILES: Cc1cc(-c2ccc(OC(C)C(=O)Nc3ccc(-c4cnccn4)cn3)cc2)ccn1 (stereo not given)
half-life at 1 µM [2]: 19 min
half-life at 1 µM [3]: 41 min
inhibition [4]: Active
inhibition at 10 µM (CYP3A4): 67%
remaining at 8 h, 1 µM [5]: 100%
inhibition at 10 µM (CYP2D6): 53%
Ratio IC50 [6]: 5
IC50 [1]: 0.11 nM
CLint scaled at 1 µM [7]: 43 mL/min/kg
remaining at 0 h, 200 µM [8]: 97%
remaining at 8 h, 200 µM [9]: 71%
Activity [10]: Non-toxic
remaining at 0.5 h, 1 µM [11]: 100%
remaining at 4 h, 200 µM [12]: 85%
CLint scaled at 1 µM [13]: 321 mL/min/kg
remaining at 1 h, 1 µM [14]: 100%

SMILES: Cn1ncc2cc(NCC(=O)Nc3ccc(-c4cnccn4)cn3)ccc21
IC50 [1]: > 1000 nM

SMILES: Cc1cc(-c2ccc(CCC(=O)Nc3ccc(-c4cnccn4)cn3)cc2)ccn1
half-life at 1 µM [2]: 4.8 min
half-life at 1 µM [3]: 21 min
inhibition at 10 µM (CYP3A4): 45%
remaining at 8 h, 1 µM [5]: 90%
inhibition at 10 µM (CYP2D6): 47%
IC50 [1]: 0.19 nM
CLint scaled at 1 µM [7]: 84 mL/min/kg
remaining at 0 h, 200 µM [8]: 100%
remaining at 8 h, 200 µM [9]: 93%
remaining at 0.5 h, 1 µM [11]: 98%
remaining at 4 h, 200 µM [12]: 97%
CLint scaled at 1 µM [13]: 1260 mL/min/kg
remaining at 1 h, 1 µM [14]: 94%

SMILES: Cc1cc(-c2ccc(OC(=O)Nc3ccc(-c4ccccc4)cc3)cc2)ccn1
IC50 [1]: 5 nM

SMILES: Cc1cc(-c2ccc(SCC(=O)Nc3ccc(-c4cnccn4)cn3)cc2)ccn1
half-life at 1 µM [2]: 3.4 min
half-life at 1 µM [3]: 6.8 min
inhibition at 10 µM (CYP3A4): 60%
remaining at 8 h, 1 µM [5]: 83%
inhibition at 10 µM (CYP2D6): 45%
IC50 [1]: 0.53 nM
CLint scaled at 1 µM [7]: 263 mL/min/kg
remaining at 0 h, 200 µM [8]: 98%
remaining at 8 h, 200 µM [9]: 83%
remaining at 0.5 h, 1 µM [11]: 93%
remaining at 4 h, 200 µM [12]: 89%
CLint scaled at 1 µM [13]: 1790 mL/min/kg
remaining at 1 h, 1 µM [14]: 91%

SMILES: Cc1cc(-c2ccc(N(C)CC(=O)Nc3ccc(-c4cnccn4)cn3)cc2)ccn1
IC50 [1]: 0.67 nM

SMILES: Cc1cc(-c2cccc(SCC(=O)Nc3ccc(-c4cnccn4)cn3)c2)ccn1
IC50 [1]: 40 nM

SMILES: Cc1cc(-c2cccc(NCC(=O)Nc3ccc(-c4cnccn4)cn3)c2)ccn1
IC50 [1]: 164 nM

SMILES: Cc1cc(-c2ccc(NCC(=O)Nc3ccc(-c4cnccn4)cn3)cc2)ccn1
half-life at 1 µM [2]: 14 min
half-life at 1 µM [3]: 39 min
inhibition [4]: Active
inhibition at 10 µM (CYP3A4): 50%
remaining at 8 h, 1 µM [5]: 98%
inhibition at 10 µM (CYP2D6): 53%
IC50 [1]: 0.96 nM
CLint scaled at 1 µM [7]: 45 mL/min/kg
remaining at 0 h, 200 µM [8]: 95%
remaining at 8 h, 200 µM [9]: 85%
Activity [10]: Non-toxic
remaining at 0.5 h, 1 µM [11]: 100%
remaining at 4 h, 200 µM [12]: 88%
CLint scaled at 1 µM [13]: 440 mL/min/kg
remaining at 1 h, 1 µM [14]: 100%

SMILES: Cc1cc(-c2ccc(OC(=O)Nc3ccc(-c4cccnc4)cc3)cc2)ccn1
IC50 [1]: 2.2 nM
